# Laboratory results reported in patent US8163793B2, “Proline derivatives” (Hoffman-La Roche Inc., priority 2009, dated 2012).
# Molecular target: Cathepsin S (UniProt P25774)
# Assay: Cathepsin enzyme inhibition assay (fluorogenic peptide substrate Z-Val-Val-Arg-AMC), Cathepsin S
# Assay type: biochemical, human and mouse
# Conditions: enzyme 1 nM, substrate 20 μM, pH 6.5; read-out: CatS IC50
# Protocol: (§1) Cathepsin Enzyme Inhibition Assay
# (§2) Enzyme activity is measured by observing the increase in fluorescence intensity caused by cleavage of a peptide substrate containing a fluorophore whose emission is quenched in the intact peptide.
# (§3) Assay buffer: 100 mM potassium phosphate pH 6.5, EDTA-Na 5 mM, Triton X-100 0.001%, DDT 5 mM.
# (§4) Enzymes (all at 1 nM): human and mouse Cathepsin S, Cat K, Cat B, Cat L Substrate (20 μM): Z-Val-Val-Arg-AMC, except for Cat K which uses Z-Leu-Arg-AMC (both from Bachem).
# (§5) AMC=7-Amino-4-Methyl-Coumarin.
# Enzyme is added to the substance dilutions in 96-well microtitre plates and the reaction is started with substrate. […] IC50 are calculated by standard methods. The results are expressed in μM in the following table.
row,IC50,SMILES
1,1.4 nM,"CC(C)(C)OC(=O)N1C[C@H](S(=O)(=O)c2c(Cl)cccc2Cl)C[C@H]1C(=O)NC1(C#N)CC1 [Example 47, (2S,4R)-2-(1-Cyano-cyclopropylcarbamoyl)-4-(2,6-dichloro-benzenesulfonyl)-pyrrolidine-1-carboxylic acid tert-butyl ester]"
2,0.2 nM,"N#CC1(NC(=O)[C@@H]2C[C@@H](S(=O)(=O)c3ccccc3Cl)CN2C(=O)C2(c3ccc(Cl)cc3)CC2)CC1 [Example 215, (2S,4R)-4-(2-Chloro-benzenesulfonyl)-1-[1-(4-chloro-phenyl)-cyclopropanecarbonyl]-pyrrolidine-2-carboxylic acid (1-cyano-cyclopropyl)-amide]"
3,5.65 nM,"Cc1cc(N2C[C@H](S(=O)(=O)c3ccccc3C(F)(F)F)C[C@H]2C(=O)NC2(C#N)CC2)nn1C [Example 255, (2S,4R)-1-(1,5-Dimethyl-1H-pyrazol-3-yl)-4-(2-trifluoromethyl-benzenesulfonyl)-pyrrolidine-2-carboxylic acid (1-cyano-cyclopropyl)-amide]"
4,0.33 nM,"N#CC1(NC(=O)[C@@H]2C[C@@H](S(=O)(=O)c3ccc(-c4ccc(F)cc4F)cc3C(F)(F)F)CN2C(=O)C2(C(F)(F)F)CC2)CC1 [Example 263, (2S,4R)-4-(2′,4′-Difluoro-3-trifluoromethyl-biphenyl-4-sulfonyl)-1-(1-trifluoromethyl-cyclopropanecarbonyl)-pyrrolidine-2-carboxylic acid (1-cyano-cyclopropyl)-amide]"
5,15 nM,"Cc1cc(N2C[C@H](S(=O)(=O)c3ccccc3C(F)(F)F)C[C@H]2C(=O)NC2(C#N)CC2)n[nH]1 [Example 286, (2S,4R)-1-(5-Methyl-1H-pyrazol-3-yl)-4-(2-trifluoromethyl-benzenesulfonyl)-pyrrolidine-2-carboxylic acid (1-cyano-cyclopropyl)-amide]"
6,14.7 nM,"N#CC1(NC(=O)[C@@H]2C[C@@H](S(=O)(=O)c3ccc(N4CCN(CC(F)(F)F)CC4)cc3Cl)CN2C(=O)C2(C(F)(F)F)CC2)CC1 [Example 291, (2S,4R)-4-{2-Chloro-4-[4-(2,2,2-trifluoro-ethyl)-piperazin-1-yl]-benzenesulfonyl}-1-(1-trifluoromethyl-cyclopropanecarbonyl)-pyrrolidine-2-carboxylic acid (1-cyano-cyclopropyl)-amide]"
7,19.7 nM,"CN1CCN(c2ccc(S(=O)(=O)[C@@H]3CC(C(=O)NC4(C#N)CC4)N(C(=O)C4(C(F)(F)F)CC4)C3)c(Cl)c2)CC1 (stereo partly drawn) [Example 305, (R)-4-[2-Chloro-4-(4-methyl-piperazin-1-yl)-benzenesulfonyl]-1-(1-trifluoromethyl-cyclopropanecarbonyl)-pyrrolidine-2-carboxylic acid (1-cyano-cyclopropyl)-amide]"
8,0.195 nM,"N#CC1(NC(=O)[C@@H]2C[C@@H](S(=O)(=O)c3ccc(F)cc3Cl)CN2C(=O)C2(c3ccc(Cl)cc3)CC2)CC1 [Example 312, (2S,4R)-4-(2-Chloro-4-fluoro-benzenesulfonyl)-1-[1-(4-chloro-phenyl)-cyclopropanecarbonyl]-pyrrolidine-2-carboxylic acid (1-cyano-cyclopropyl)-amide]"
9,0.09 nM,"CN1CCN(c2ccc(S(=O)(=O)[C@@H]3C[C@@H](C(=O)NC4(C#N)CC4)N(C(=O)C4(c5ccc(Cl)cc5)CC4)C3)c(Cl)c2)CC1 [Example 324, (2S,4R)-4-[2-Chloro-4-(4-methyl-piperazin-1-yl)-benzenesulfonyl]-1-[1-(4-chloro-phenyl)-cyclopropanecarbonyl]-pyrrolidine-2-carboxylic acid (1-cyano-cyclopropyl)-amide]"
10,0.08 nM,"N#CC1(NC(=O)[C@@H]2C[C@@H](S(=O)(=O)c3ccc(-n4ccnc4)cc3Cl)CN2C(=O)C2(c3ccc(Cl)cc3)CC2)CC1 [Example 325, (2S,4R)-4-(2-Chloro-4-imidazol-1-yl-benzenesulfonyl)-1-[1-(4-chloro-phenyl)-cyclopropanecarbonyl]-pyrrolidine-2-carboxylic acid (1-cyano-cyclopropyl)-amide]"
11,0.18 nM,"Cc1nccn1-c1ccc(S(=O)(=O)[C@@H]2C[C@@H](C(=O)NC3(C#N)CC3)N(C(=O)C3(c4ccc(Cl)cc4)CC3)C2)c(Cl)c1 [Example 326, (2S,4R)-4-[2-Chloro-4-(2-methyl-imidazol-1-yl)-benzenesulfonyl]-1-[1-(4-chloro-phenyl)-cyclopropanecarbonyl]-pyrrolidine-2-carboxylic acid (1-cyano-cyclopropyl)-amide]"
12,0.175 nM,"N#CC1(NC(=O)[C@@H]2C[C@@H](S(=O)(=O)c3ccc(-n4cccn4)cc3Cl)CN2C(=O)C2(c3ccc(Cl)cc3)CC2)CC1 [Example 327, (2S,4R)-1-[1-(4-Chloro-phenyl)-cyclopropanecarbonyl]-4-(2-chloro-4-pyrazol-1-yl-benzenesulfonyl)-pyrrolidine-2-carboxylic acid (1-cyano-cyclopropyl)-amide]"
13,0.115 nM,"CC(C)(C)N1CCN(c2ccc(S(=O)(=O)[C@@H]3C[C@@H](C(=O)NC4(C#N)CC4)N(C(=O)C4(c5ccc(Cl)cc5)CC4)C3)c(Cl)c2)CC1 [Example 329, (2S,4R)-4-[4-(4-tert-Butyl-piperazin-1-yl)-2-chloro-benzenesulfonyl]-1-[1-(4-chloro-phenyl)-cyclopropanecarbonyl]-pyrrolidine-2-carboxylic acid (1-cyano-cyclopropyl)-amide]"
14,0.08 nM,"N#CC1(NC(=O)[C@@H]2C[C@@H](S(=O)(=O)c3ccc(N4CCN(C5CC5)CC4)cc3Cl)CN2C(=O)C2(c3ccc(Cl)cc3)CC2)CC1 [Example 330, (2S,4R)-4-[2-Chloro-4-(4-cyclopropyl-piperazin-1-yl)-benzenesulfonyl]-1-[1-(4-chloro-phenyl)-cyclopropanecarbonyl]-pyrrolidine-2-carboxylic acid (1-cyano-cyclopropyl)-amide]"
15,0.33 nM,"CC(C)c1nccn1-c1ccc(S(=O)(=O)[C@@H]2C[C@@H](C(=O)NC3(C#N)CC3)N(C(=O)C3(c4ccc(Cl)cc4)CC3)C2)c(Cl)c1 [Example 336, (2S,4R)-4-[2-Chloro-4-(2-isopropyl-imidazol-1-yl)-benzenesulfonyl]-1-[1-(4-chloro-phenyl)-cyclopropanecarbonyl]-pyrrolidine-2-carboxylic acid (1-cyano-cyclopropyl)-amide]"
16,0.49 nM,"Cc1cc(N2C[C@H](S(=O)(=O)c3ccc(N4CC(F)(F)C4)cc3C(F)(F)F)C[C@H]2C(=O)NC2(C#N)CC2)n(C2CCOCC2)n1 [Example 403, (2S,4R)-4-[4-(3,3-Difluoro-azetidin-1-yl)-2-trifluoromethyl-benzenesulfonyl]-1-[5-methyl-2-(tetrahydro-pyran-4-yl)-2H-pyrazol-3-yl]-pyrrolidine-2-carboxylic acid (1-cyano-cyclopropyl)-amide]"
17,0.405 nM,"Cc1cc(N2C[C@H](S(=O)(=O)c3ccc(N4CCN(C)CC4)cc3C(F)(F)F)C[C@H]2C(=O)NC2(C#N)CC2)n(C2CCOCC2)n1 [Example 404, (2S,4R)-4-[4-(4-Methyl-piperazin-1-yl)-2-trifluoromethyl-benzenesulfonyl]-1-[5-methyl-2-(tetrahydro-pyran-4-yl)-2H-pyrazol-3-yl]-pyrrolidine-2-carboxylic acid (1-cyano-cyclopropyl)-amide]"
18,0.52 nM,"Cc1ccc(C2(C(=O)N3C[C@H](S(=O)(=O)c4ccccc4Cl)C[C@H]3C(=O)NC3(C#N)CC3)CC2)cc1 [Example 438, (2S,4R)-4-(2-chlorophenylsulfonyl)-N-(1-cyanocyclopropyl)-1-(1-p-tolylcyclopropane-carbonyl)pyrrolidine-2-carboxamide]"
19,61900 nM,"N#CC1(NC(=O)[C@@H]2C[C@@H](S(=O)(=O)Cc3ccccc3)CN2C(=O)C2(c3ccc(Cl)cc3)CC2)CC1 [Example 458, (2S,4R)-4-(benzylsulfonyl)-1-(1-(4-chlorophenyl)cyclopropanecarbonyl)-N-(1-cyanocyclopropyl)pyrrolidine-2-carboxamide]"

# Molecular target: Cat L (UniProt P07711)
# Assay: Cathepsin enzyme inhibition assay (fluorogenic peptide substrate Z-Val-Val-Arg-AMC), Cathepsin L
# Assay type: biochemical, human and mouse
# Conditions: enzyme 1 nM, substrate 20 μM, pH 6.5; read-out: CatL IC50
# Protocol: as §1, §2, §3, §4, §5
# Excitation 360 nm, Emission 465 nm.
# Enzyme is added to the substance dilutions in 96-well microtitre plates and the reaction is started with substrate. Fluorescence emission is measured over 20 minutes, during which time a linear increase is observed in the absence of inhibitor. IC50 are calculated by standard methods. The results are expressed in μM in the following table.
row,IC50,SMILES
1,≥ 25000 nM,"N#CC1(NC(=O)[C@@H]2C[C@@H](S(=O)(=O)c3ccccc3C(F)(F)F)CN2c2ccccc2)CC1 [Example 119, (2S,4R)-1-Phenyl-4-(2-trifluoromethyl-benzenesulfonyl)-pyrrolidine-2-carboxylic acid (1-cyano-cyclopropyl)-amide]"
2,≥ 25000 nM,"N#CCNC(=O)[C@@H]1C[C@@H](S(=O)(=O)c2ccccc2C(F)(F)F)CN1c1ccccc1 [Example 151, (2S,4R)-1-Phenyl-4-(2-trifluoromethyl-benzenesulfonyl)-pyrrolidine-2-carboxylic acid cyanomethyl-amide]"
3,≥ 25000 nM,"N#CC1(NC(=O)[C@@H]2C[C@@H](S(=O)(=O)c3ccccc3C(F)(F)F)CN2c2ccnc(C(F)(F)F)n2)CC1 [Example 185, (2S,4R)-4-(2-Trifluoromethyl-benzenesulfonyl)-1-(2-trifluoromethyl-pyrimidin-4-yl)-pyrrolidine-2-carboxylic acid (1-cyano-cyclopropyl)-amide]"
4,≥ 25000 nM,"N#CC1(NC(=O)[C@@H]2C[C@@H](S(=O)(=O)c3ccccc3C(F)(F)F)CN2c2ncccc2C(F)(F)F)CC1 [Example 186, (2S,4R)-4-(2-Trifluoromethyl-benzenesulfonyl)-1-(3-trifluoromethyl-pyridin-2-yl)-pyrrolidine-2-carboxylic acid (1-cyano-cyclopropyl)-amide]"
